Experiments:
Assay in all cases: KINOMEscan
Assay type in all cases: binding
Settings in all cases: 35 at 1 µM; read-out: % inhibition
MST2 = molecular target: T1, MST2 (Homo sapiens, UniProt Q13188)
T1 construct: purchased Eurofins DiscoverX (KINOMEscan)
Description: (§1) KinomeScan Assay on 35 was performed as previously described at EuroFins DiscoverX (Fremont, CA, USA).

FLT4 = molecular target: T2, FLT4 (Homo sapiens, UniProt P35916)
T2 construct: purchased Eurofins DiscoverX (KINOMEscan)
Description: as §1

KIT = molecular target: T3, KIT (Homo sapiens, UniProt P10721)
T3 construct: purchased Eurofins DiscoverX (KINOMEscan)
Description: as §1

PRP4 = molecular target: T4, PRP4 (Homo sapiens, UniProt Q13523)
T4 construct: purchased Eurofins DiscoverX (KINOMEscan)
Description: as §1

SRPK3 = molecular target: T5, SRPK3 (Homo sapiens, UniProt Q9UPE1)
T5 construct: purchased Eurofins DiscoverX (KINOMEscan)
Description: as §1

LRRK2(G2019S) = molecular target: T6, LRRK2(G2019S) (Homo sapiens, UniProt Q5S007, G2019S)
T6 construct: purchased Eurofins DiscoverX (KINOMEscan)
Description: as §1

MEK4 = molecular target: T7, MEK4 (Homo sapiens, UniProt P45985)
T7 construct: purchased Eurofins DiscoverX (KINOMEscan)
T7 sequence (P45985 whole entry): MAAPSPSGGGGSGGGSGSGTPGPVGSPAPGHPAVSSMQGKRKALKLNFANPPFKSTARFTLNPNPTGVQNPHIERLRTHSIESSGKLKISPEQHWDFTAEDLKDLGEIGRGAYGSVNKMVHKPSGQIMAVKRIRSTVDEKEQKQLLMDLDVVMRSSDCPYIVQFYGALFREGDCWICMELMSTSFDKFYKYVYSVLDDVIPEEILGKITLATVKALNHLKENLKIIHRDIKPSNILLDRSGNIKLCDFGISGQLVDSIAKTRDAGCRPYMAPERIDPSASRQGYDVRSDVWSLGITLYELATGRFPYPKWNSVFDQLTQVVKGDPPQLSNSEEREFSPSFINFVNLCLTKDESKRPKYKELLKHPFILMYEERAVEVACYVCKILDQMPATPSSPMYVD
Description: as §1

RIPK1 = molecular target: T8, RIPK1 (Homo sapiens, UniProt Q13546)
T8 construct: purchased Eurofins DiscoverX (KINOMEscan)
Description: as §1

ITK = molecular target: T9, ITK (Homo sapiens, UniProt Q08881)
T9 construct: purchased Eurofins DiscoverX (KINOMEscan)
Description: as §1

NEK4 = molecular target: T10, NEK4 (Homo sapiens, UniProt P51957)
T10 construct: purchased Eurofins DiscoverX (KINOMEscan)
T10 sequence (P51957 whole entry): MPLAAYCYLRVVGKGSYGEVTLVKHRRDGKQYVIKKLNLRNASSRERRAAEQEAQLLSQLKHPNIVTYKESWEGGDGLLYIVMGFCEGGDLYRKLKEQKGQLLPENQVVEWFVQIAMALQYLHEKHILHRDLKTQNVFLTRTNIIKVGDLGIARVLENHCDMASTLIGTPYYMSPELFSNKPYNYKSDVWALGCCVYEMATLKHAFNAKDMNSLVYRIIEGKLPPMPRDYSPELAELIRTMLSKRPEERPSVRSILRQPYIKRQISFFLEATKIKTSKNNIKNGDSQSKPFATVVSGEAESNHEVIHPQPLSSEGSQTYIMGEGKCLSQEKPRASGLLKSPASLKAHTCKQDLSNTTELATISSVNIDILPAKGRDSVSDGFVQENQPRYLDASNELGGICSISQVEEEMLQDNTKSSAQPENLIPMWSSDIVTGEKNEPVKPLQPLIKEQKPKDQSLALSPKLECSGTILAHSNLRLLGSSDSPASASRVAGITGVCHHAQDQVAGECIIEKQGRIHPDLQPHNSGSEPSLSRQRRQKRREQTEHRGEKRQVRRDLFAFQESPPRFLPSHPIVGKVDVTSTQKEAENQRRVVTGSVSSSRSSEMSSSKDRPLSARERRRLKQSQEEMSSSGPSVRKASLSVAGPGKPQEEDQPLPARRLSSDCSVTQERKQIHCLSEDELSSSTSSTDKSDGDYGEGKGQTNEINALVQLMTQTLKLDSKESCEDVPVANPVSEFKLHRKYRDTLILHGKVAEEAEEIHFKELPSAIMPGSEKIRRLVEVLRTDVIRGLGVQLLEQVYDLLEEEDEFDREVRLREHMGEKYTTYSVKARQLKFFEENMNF
Description: as §1

DYRK1B = molecular target: T11, DYRK1B (Homo sapiens, UniProt Q9Y463)
T11 construct: purchased Eurofins DiscoverX (KINOMEscan)
Description: as §1

LATS2 = molecular target: T12, LATS2 (Homo sapiens, UniProt Q9NRM7)
T12 construct: purchased Eurofins DiscoverX (KINOMEscan)
Description: as §1

CAMK2A = molecular target: T13, CAMK2A (Homo sapiens, UniProt Q9UQM7)
T13 construct: purchased Eurofins DiscoverX (KINOMEscan)
T13 sequence (Q9UQM7 whole entry): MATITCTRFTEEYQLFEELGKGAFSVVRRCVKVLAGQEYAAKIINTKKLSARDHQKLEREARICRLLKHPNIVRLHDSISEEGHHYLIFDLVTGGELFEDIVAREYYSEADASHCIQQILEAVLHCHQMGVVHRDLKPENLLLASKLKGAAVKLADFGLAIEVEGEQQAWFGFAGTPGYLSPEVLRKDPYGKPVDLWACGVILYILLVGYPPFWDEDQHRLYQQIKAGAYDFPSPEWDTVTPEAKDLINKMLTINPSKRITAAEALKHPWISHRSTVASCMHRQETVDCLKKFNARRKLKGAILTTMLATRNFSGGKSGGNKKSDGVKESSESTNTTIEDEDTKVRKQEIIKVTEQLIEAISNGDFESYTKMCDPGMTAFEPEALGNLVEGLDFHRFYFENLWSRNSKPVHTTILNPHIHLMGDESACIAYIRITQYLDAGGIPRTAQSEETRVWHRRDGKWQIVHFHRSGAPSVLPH
Description: as §1

ZAP70 = molecular target: T14, ZAP70 (Homo sapiens, UniProt P43403)
T14 construct: purchased EuroFins DiscoverX (Fremont, CA, USA)
Description: as §1

ERK2 = molecular target: T15, ERK2 (Homo sapiens, UniProt P28482)
T15 construct: purchased Eurofins DiscoverX (KINOMEscan)
Description: as §1

IKK-beta = molecular target: T16, IKK-beta (Homo sapiens, UniProt O14920)
T16 construct: purchased Eurofins DiscoverX (KINOMEscan)
T16 sequence (O14920 whole entry): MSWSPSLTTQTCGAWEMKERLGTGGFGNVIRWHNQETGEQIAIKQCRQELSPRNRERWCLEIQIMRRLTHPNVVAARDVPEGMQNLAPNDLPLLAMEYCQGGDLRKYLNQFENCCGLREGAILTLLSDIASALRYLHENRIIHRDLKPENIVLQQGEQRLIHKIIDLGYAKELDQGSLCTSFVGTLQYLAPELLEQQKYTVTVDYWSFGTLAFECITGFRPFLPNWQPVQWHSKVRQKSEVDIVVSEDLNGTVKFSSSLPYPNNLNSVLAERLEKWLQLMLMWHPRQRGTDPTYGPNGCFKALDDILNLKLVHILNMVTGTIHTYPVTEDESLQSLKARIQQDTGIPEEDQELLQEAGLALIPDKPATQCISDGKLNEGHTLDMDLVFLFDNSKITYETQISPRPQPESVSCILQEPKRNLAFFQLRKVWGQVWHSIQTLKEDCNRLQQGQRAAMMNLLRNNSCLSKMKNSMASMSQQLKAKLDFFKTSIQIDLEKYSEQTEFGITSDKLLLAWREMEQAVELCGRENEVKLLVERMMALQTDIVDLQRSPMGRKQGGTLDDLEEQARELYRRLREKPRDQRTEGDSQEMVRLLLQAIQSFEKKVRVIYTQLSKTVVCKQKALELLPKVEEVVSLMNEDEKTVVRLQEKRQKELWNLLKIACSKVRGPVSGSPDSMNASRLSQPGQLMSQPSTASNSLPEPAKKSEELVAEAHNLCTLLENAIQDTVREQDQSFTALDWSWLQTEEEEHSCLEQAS
Description: as §1

SgK110 = molecular target: T17, SgK110 (Homo sapiens, UniProt P0C264)
T17 construct: purchased Eurofins DiscoverX (KINOMEscan)
Description: as §1

[1] = molecular target: T18, RSK4(Kin.Dom.2-C-terminal) (Homo sapiens, UniProt Q9UK32)
T18 construct: RSK4(Kin.Dom.2-C-terminal); purchased Eurofins DiscoverX (KINOMEscan)
T18 sequence (Q9UK32 401-745): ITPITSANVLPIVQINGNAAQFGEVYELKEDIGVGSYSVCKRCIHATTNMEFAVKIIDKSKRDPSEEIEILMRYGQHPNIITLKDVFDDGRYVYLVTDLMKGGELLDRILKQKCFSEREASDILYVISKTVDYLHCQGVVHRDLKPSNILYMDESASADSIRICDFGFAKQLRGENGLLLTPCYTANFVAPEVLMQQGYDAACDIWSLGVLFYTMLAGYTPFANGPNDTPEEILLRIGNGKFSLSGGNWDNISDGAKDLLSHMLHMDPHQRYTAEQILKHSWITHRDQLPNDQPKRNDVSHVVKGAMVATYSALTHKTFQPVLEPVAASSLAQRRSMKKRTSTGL
Description: as §1

PKAC-beta = molecular target: T19, PKAC-beta (Homo sapiens, UniProt P22694)
T19 construct: purchased Eurofins DiscoverX (KINOMEscan)
Description: as §1

EGFR(T790M) = molecular target: T20, EGFR(T790M) (Homo sapiens, UniProt P00533, T790M)
T20 construct: purchased Eurofins DiscoverX (KINOMEscan)
Description: as §1

WNK4 = molecular target: T21, WNK4 (Homo sapiens, UniProt Q96J92)
T21 construct: purchased EuroFins DiscoverX (Fremont, CA, USA)
Description: as §1

[2] = molecular target: T22, JAK1(JH1domain-catalytic) (Homo sapiens, UniProt P23458)
T22 construct: JAK1(JH1domain-catalytic); purchased Eurofins DiscoverX (KINOMEscan)
Description: as §1

DAPK2 = molecular target: T23, DAPK2 (Homo sapiens, UniProt Q9UIK4)
T23 construct: purchased Eurofins DiscoverX (KINOMEscan)
Description: as §1

TNIK = molecular target: T24, TNIK (Homo sapiens, UniProt Q9UKE5)
T24 construct: purchased Eurofins DiscoverX (KINOMEscan)
Description: as §1

HCK = molecular target: T25, HCK (Homo sapiens, UniProt P08631)
T25 construct: purchased Eurofins DiscoverX (KINOMEscan)
Description: as §1

CLK1 = molecular target: T26, CLK1 (Homo sapiens, UniProt P49759)
T26 construct: purchased Eurofins DiscoverX (KINOMEscan)
Description: as §1

p38-delta = molecular target: T27, p38-delta (Homo sapiens, UniProt O15264)
T27 construct: purchased Eurofins DiscoverX (KINOMEscan)
Description: as §1

EGFR(L861Q) = molecular target: T28, EGFR(L861Q) (Homo sapiens, UniProt P00533, L861Q)
T28 construct: purchased Eurofins DiscoverX (KINOMEscan)
Description: as §1

YANK1 = molecular target: T29, YANK1 (Homo sapiens, UniProt Q8WU08)
T29 construct: purchased EuroFins DiscoverX (Fremont, CA, USA)
Description: as §1

CSNK1G3 = molecular target: T30, CSNK1G3 (Homo sapiens, UniProt Q9Y6M4)
T30 construct: purchased Eurofins DiscoverX (KINOMEscan)
Description: as §1

TSSK1B = molecular target: T31, TSSK1B (Homo sapiens, UniProt Q9BXA7)
T31 construct: purchased Eurofins DiscoverX (KINOMEscan)
T31 sequence (Q9BXA7 whole entry): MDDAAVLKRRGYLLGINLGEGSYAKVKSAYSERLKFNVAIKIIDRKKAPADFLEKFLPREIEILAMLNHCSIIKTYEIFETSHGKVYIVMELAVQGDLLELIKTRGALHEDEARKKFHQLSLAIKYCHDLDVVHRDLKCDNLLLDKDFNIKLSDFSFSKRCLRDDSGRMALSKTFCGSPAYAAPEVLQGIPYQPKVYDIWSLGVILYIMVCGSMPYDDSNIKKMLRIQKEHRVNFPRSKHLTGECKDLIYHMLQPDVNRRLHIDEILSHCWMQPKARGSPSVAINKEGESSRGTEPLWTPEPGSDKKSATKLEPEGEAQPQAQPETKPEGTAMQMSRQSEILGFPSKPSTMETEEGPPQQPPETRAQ
Description: as §1

FLT3(D835V) = molecular target: T32, FLT3(D835V) (Homo sapiens, UniProt P36888, D835V)
T32 construct: purchased Eurofins DiscoverX (KINOMEscan)
Description: as §1

TRKA = molecular target: T33, TRKA (Homo sapiens, UniProt P04629)
T33 construct: purchased Eurofins DiscoverX (KINOMEscan)
Description: as §1

TAOK2 = molecular target: T34, TAOK2 (Homo sapiens, UniProt Q9UL54)
T34 construct: purchased Eurofins DiscoverX (KINOMEscan)
Description: as §1

[3] = molecular target: T35, ABL1(Q252H)-phosphorylated (Homo sapiens, UniProt P00519, Q252H)
T35 construct: purchased Eurofins DiscoverX (KINOMEscan)
Description: as §1

LTK = molecular target: T36, LTK (Homo sapiens, UniProt P29376)
T36 construct: purchased Eurofins DiscoverX (KINOMEscan)
Description: as §1

BUB1 = molecular target: T37, BUB1 (Homo sapiens, UniProt O43683)
T37 construct: purchased Eurofins DiscoverX (KINOMEscan)
T37 sequence (O43683 whole entry): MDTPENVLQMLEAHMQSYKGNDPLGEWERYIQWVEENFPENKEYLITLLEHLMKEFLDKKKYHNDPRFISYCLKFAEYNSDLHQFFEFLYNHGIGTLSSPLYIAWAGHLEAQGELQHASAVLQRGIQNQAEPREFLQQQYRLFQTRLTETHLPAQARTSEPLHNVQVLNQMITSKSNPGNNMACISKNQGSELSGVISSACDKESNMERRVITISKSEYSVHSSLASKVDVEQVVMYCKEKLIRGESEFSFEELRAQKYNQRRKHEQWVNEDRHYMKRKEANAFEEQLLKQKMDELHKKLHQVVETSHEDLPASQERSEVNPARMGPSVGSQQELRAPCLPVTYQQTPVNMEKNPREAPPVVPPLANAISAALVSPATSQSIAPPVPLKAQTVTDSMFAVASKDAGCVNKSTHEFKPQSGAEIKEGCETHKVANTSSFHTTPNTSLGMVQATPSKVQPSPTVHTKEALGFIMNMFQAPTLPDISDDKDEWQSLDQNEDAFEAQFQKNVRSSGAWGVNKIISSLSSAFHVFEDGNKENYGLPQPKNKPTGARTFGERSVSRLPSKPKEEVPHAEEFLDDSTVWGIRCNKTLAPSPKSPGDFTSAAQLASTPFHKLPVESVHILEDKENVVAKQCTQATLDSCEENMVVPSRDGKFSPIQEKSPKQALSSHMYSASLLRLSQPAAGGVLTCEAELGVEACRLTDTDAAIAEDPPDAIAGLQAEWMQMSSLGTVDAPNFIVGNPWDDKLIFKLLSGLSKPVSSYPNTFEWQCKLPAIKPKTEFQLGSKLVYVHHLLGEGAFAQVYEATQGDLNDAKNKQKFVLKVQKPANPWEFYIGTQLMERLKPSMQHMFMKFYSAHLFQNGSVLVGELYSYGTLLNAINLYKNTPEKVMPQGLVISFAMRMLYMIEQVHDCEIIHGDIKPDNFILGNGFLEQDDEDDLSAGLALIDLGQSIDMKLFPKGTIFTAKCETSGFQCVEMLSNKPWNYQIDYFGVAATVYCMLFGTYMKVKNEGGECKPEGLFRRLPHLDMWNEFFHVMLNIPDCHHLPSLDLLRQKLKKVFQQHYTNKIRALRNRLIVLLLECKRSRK
Description: as §1

MAP4K3 = molecular target: T38, MAP4K3 (Homo sapiens, UniProt Q8IVH8)
T38 construct: purchased Eurofins DiscoverX (KINOMEscan)
Description: as §1

KIT-autoinhibited = molecular target: T39, KIT-autoinhibited (Homo sapiens, UniProt P10721)
T39 construct: purchased Eurofins DiscoverX (KINOMEscan)
Description: as §1

ZAK = molecular target: T40, ZAK (Homo sapiens, UniProt Q9NYL2)
T40 construct: purchased EuroFins DiscoverX (Fremont, CA, USA)
Description: as §1

PIK3CA(H1047Y) = molecular target: T41, PIK3CA(H1047Y) (Homo sapiens, UniProt P42336, H1047Y)
T41 construct: purchased Eurofins DiscoverX (KINOMEscan)
Description: as §1

YES = molecular target: T42, YES (Homo sapiens, UniProt P07947)
T42 construct: purchased EuroFins DiscoverX (Fremont, CA, USA)
Description: as §1

T1 sequence (Q13188 whole entry): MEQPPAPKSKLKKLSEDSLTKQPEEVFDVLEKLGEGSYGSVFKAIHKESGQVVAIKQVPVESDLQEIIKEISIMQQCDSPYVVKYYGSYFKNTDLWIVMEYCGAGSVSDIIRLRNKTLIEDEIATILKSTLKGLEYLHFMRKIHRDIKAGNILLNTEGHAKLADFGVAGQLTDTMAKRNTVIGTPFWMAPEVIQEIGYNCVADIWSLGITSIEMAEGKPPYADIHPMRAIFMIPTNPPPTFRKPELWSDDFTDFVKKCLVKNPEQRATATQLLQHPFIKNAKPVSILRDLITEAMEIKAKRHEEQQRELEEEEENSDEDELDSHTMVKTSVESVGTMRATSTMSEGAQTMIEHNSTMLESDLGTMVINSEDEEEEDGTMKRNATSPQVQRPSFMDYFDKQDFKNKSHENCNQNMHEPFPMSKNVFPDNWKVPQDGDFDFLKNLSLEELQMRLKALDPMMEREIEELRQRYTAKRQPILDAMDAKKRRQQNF

## Brc1ccc2nccc(Nc3ccc4cn[nH]c4c3)c2c1 [Compound 35, 6-Bromo-N-(1H-indazol-6-yl)quinolin-4-amine]
MST2
  activity at 1 µM: 100%
FLT4
  activity at 1 µM: 100%
KIT
  activity at 1 µM: 100%
PRP4
  activity at 1 µM: 79%
SRPK3
  activity at 1 µM: 100%
LRRK2(G2019S)
  activity at 1 µM: 73%
MEK4
  activity at 1 µM: 100%
RIPK1
  activity at 1 µM: 100%
ITK
  activity at 1 µM: 100%
NEK4
  activity at 1 µM: 100%
DYRK1B
  activity at 1 µM: 100%
LATS2
  activity at 1 µM: 88%
CAMK2A
  activity at 1 µM: 100%
ZAP70
  activity at 1 µM: 100%
ERK2
  activity at 1 µM: 100%
IKK-beta
  activity at 1 µM: 100%
SgK110
  activity at 1 µM: 100%
[1]
  activity at 1 µM: 81%
PKAC-beta
  activity at 1 µM: 100%
EGFR(T790M)
  activity at 1 µM: 78%
WNK4
  activity at 1 µM: 100%
[2]
  activity at 1 µM: 100%
DAPK2
  activity at 1 µM: 100%
TNIK
  activity at 1 µM: 97%
HCK
  activity at 1 µM: 100%
CLK1
  activity at 1 µM: 100%
p38-delta
  activity at 1 µM: 100%
EGFR(L861Q)
  activity at 1 µM: 100%
YANK1
  activity at 1 µM: 100%
CSNK1G3
  activity at 1 µM: 100%
TSSK1B
  activity at 1 µM: 100%
FLT3(D835V)
  activity at 1 µM: 100%
TRKA
  activity at 1 µM: 100%
TAOK2
  activity at 1 µM: 91%
[3]
  activity at 1 µM: 100%
LTK
  activity at 1 µM: 100%
BUB1
  activity at 1 µM: 93%
MAP4K3
  activity at 1 µM: 100%
KIT-autoinhibited
  activity at 1 µM: 100%
ZAK
  activity at 1 µM: 100%
PIK3CA(H1047Y)
  activity at 1 µM: 100%
YES
  activity at 1 µM: 100%

From paper PMC6891286, “Towards the Development of an In vivo Chemical Probe for Cyclin G Associated Kinase (GAK)” (Molecules, 2019)
